Data on four molecules can be found in article PMC11418212, “Characterization of four structurally diverse inhibitors of SUR2-containing KATP channels” (Channels, 2024).

pIC50: −log10 of the molar value.

What all share (assay): Kir family selectivity thallium flux assay
Holding throughout (format): cell-based

The target in assay [1] is T1, Kir3.1/3.2 (Homo sapiens, UniProt P48051+P48549).
T1 construct: expressed in transfected cells
T1 sequence (P48549 1-501): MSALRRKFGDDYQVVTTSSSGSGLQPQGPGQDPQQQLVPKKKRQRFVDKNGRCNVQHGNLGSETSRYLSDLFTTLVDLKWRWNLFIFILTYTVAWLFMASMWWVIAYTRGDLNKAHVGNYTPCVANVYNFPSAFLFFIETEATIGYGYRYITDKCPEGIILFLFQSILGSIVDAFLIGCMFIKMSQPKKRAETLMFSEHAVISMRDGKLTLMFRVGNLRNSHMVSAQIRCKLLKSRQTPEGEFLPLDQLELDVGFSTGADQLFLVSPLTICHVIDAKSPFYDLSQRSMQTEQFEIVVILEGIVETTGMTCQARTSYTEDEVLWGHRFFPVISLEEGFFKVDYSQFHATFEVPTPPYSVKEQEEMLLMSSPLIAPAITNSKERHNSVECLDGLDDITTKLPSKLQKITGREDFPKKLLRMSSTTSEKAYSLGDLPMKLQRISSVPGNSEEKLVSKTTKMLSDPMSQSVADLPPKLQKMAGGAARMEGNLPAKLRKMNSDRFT
T1 sequence (P48051 1-423): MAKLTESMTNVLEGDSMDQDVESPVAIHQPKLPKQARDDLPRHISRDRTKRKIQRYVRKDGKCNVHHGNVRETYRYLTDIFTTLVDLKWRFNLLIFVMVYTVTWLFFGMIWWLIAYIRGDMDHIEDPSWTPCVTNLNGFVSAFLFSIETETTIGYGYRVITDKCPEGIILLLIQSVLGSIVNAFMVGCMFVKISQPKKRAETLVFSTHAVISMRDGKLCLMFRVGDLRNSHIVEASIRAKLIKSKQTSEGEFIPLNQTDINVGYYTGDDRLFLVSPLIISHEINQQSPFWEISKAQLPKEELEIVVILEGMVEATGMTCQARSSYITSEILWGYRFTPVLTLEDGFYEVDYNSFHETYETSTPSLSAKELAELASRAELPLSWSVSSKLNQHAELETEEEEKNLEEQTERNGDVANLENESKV
As for the experimental part:
(§1) Thallium flux assays were conducted using the established methods. Stably transfected T-REx-HEK-293 cells expressing Kir6.2/SUR1 or Kir6.1/SUR2B were cultured overnight in polyamine-coated plates (black-walled, clear-bottomed; BD, Bedford, MA) at a density of 20,000 cells in 20 µl per well of cell culture media. The expression of Kir6.2/SUR1 or Kir6.1/SUR2B channels was induced by treating cells with 1 µg/ml tetracycline overnight. The following day, cells were rinsed with an assay buffer (Hanks’ Balanced Salt Solution supplied with 20 mM HEPES), loaded with the thallium-sensor dye Brilliant Thallos-AM AM (Ion Bioscience, San Marcos, TX) for 1 h, and then washed again with assay buffer to remove unincorporated dye. The cell plate was subsequently placed in a Panoptic Kinetic Imaging Plate Reader (Wavefront Bioscience, Franklin, TN) and imaged at a frequency of 1 Hz using 482/35 nm (excitation) and 536/40 nm (emission) filter sets. Kir6.1/SUR2B channels were activated with 10 µM pinacidil, whereas Kir6.1/SUR1 was activated with 30 µM VU0071063 [34]. To activate KATP channels independent of activators with ATP-depletion method, cells were treated with a cocktail of metabolic inhibitors (2.5 mM sodium cyanide and 20 mM 2-deoxy glucose) for 25 min before imagine. Control and test compounds diluted freshly from DMSO stocks into assay buffer were added to wells for four minutes before adding 0.5 mM chloride-free thallium stimulus buffer (Ion Bioscience) to initiate thallium flux through the expressed KATP channels. Thallium flux was recorded from all 384-wells for 2 min before terminating the experiment. […] Selectivity assays against other Kir channels were performed as described previously.
(§2) To begin elucidating the binding site location of VU0212387, VU0543336, VU0605768, and VU0544086, we evaluated the activity of the inhibitors against KATP channels composed of different Kir and SUR subunit combinations expressed in HEK293 cells. Specifically, the compounds were tested against Kir6.1/SUR1, Kir6.2/SUR1, Kir6.1/SUR2A, Kir6.2/SUR2A, Kir6.1/SUR2B, and Kir6.2/SUR2B at a dose of 3 µM. […] We expanded the selectivity analysis to include 10 other members of the Kir channel family.

For assay [2], the target named is T2, Kir3.1/3.4 (Homo sapiens, UniProt P48544+P48549).
T2 construct: expressed in transfected cells
T2 sequence (P48549 1-501): T1 sequence (P48549 1-501)
T2 sequence (P48544 1-419): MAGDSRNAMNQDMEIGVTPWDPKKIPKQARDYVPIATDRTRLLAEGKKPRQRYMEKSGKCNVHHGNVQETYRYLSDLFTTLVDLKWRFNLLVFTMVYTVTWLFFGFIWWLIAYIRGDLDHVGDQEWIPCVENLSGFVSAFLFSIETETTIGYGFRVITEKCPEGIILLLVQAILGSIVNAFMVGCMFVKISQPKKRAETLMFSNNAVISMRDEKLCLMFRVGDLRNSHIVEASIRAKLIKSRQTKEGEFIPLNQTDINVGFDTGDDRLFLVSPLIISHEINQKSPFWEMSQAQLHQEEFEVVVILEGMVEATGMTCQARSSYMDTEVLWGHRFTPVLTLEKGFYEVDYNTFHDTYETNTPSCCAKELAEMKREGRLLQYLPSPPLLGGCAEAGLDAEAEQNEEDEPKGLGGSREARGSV
The note with it: for pIC50: thallium flux. As for the experimental part: as §1, §2

Assay [3] has as its target T3, Kir4.1 (Homo sapiens, UniProt P78508).
T3 construct: expressed in transfected cells
T3 sequence (P78508 1-379): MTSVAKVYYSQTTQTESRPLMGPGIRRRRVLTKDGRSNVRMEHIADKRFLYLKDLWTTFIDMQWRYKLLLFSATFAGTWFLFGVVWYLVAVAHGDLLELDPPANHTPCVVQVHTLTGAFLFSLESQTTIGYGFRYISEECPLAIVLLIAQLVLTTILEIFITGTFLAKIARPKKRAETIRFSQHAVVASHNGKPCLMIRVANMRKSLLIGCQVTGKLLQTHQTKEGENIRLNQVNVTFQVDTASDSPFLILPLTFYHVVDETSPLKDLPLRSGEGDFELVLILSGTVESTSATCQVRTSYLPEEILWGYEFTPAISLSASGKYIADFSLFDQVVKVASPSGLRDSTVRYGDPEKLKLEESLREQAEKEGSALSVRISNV
As for the experimental part:
as §1, §2

For the molecule `O=C1c2oc3ccccc3c(=O)c2C(c2cccc(Br)c2)N1CCO` (stereo not shown) [VU0605768, 1-(3-bromophenyl)-2-(2-hydroxyethyl)-1,2-dihydrochromeno[2,3-c]pyrrole-3,9-dione], the pIC50 in assay [1], in assay [2] and in assay [3] was less than 4.52 in each case.
Take `O=C(NCc1cc(-c2ccncc2)n(C2CCCC2)n1)Nc1cccs1` [VU0544086, 1-((1-cyclopentyl-5-(pyridin-4-yl)-1 H-pyrazol-3-yl)methyl)-3-(thiophen-2-yl)urea]: the pIC50 (commonly the IC50 on a negative log10 scale, so that one unit is a factor of ten) was less than 4.52 in assay [1], 4.79 in assay [2] and less than 4.52 in assay [3]. Also, in assay [2] (observed at 30 µM, read-out: Percent maximal inhibition of Kir3.1/3.4), the inhibition at 30 µM came out at 92%.
Regarding `c1ccc2[nH]c(CSc3ncnc4c3oc3ccccc34)nc2c1` [VU0212387, 4-(((1 H-benzo[d]imidazol-2-yl)methyl)thio)benzofuro[3,2-d]pyrimidine], the pIC50 in assay [1], in assay [2] and in assay [3] was less than 4.52 each time.
Consider `O=C(NCC(O)(c1ccccc1)C(F)(F)F)c1ccc(OC(F)(F)F)cc1` (stereo not shown) [VU0543336, N-(3,3,3-trifluoro-2-hydroxy-2-phenylpropyl)-4-(trifluoromethoxy)benzamide], for which the pIC50 in assay [1], in assay [2] and in assay [3] was less than 4.52 each time.
